{
  "source": "patent US20220031629A1",
  "about": "“OPHTHALMIC COMPOSITIONS FOR REMOVING MEIBUM OR INHIBITING MEIBUM BUILDUP” (Altaire Pharmaceuticals, Inc., priority 2020, published 2022)",
  "system": "normal human keratinocytes/stratified squamous epithelium (EPIOCULAR model)",
  "test": "Ocular irritation MTT assay (EPIOCULAR model)",
  "format": "cell-based",
  "experimental": "Another ocular irritation study was done by exposing a microemulsion containing polyoxyl 35 castor oil in accordance with an embodiment of the present disclosure onto normal human keratinocytes/stratified squamous epithelium which is similar to that found in the cornea epithelium of the human eye (EPIOCULAR model), and then checking tissue viability with MTT assay for cytotoxicity after incubation in comparison with a water control (Cyprotex).",
  "data": [
    {"smiles": "COC(C)=O", "note": "[Methyl Acetate]", "values": [
      {"measurement": "Irritation Response (Irritant if ≤ 60%)", "setting": "MTT assay", "result": "Positive"},
      {"measurement": "Mean Tissue Viability", "setting": "MTT assay after incubation, in comparison with water control", "result": 31.1, "unit": "%"}
    ]}
  ]
}
